# Laboratory results: patent EP4741391A1, “NMT INHIBITOR, AND PREPARATION METHOD THEREFOR AND USE THEREOF” (Nanjing Synnocare Pharmaceutical Technology Co., Ltd., priority 2023, dated 2025)
# pIC50: −log10 of the molar value.
# Tests used:
# [1] = test system: MV-4-11 cells; assay: Anti-proliferative activity against MV-4-11 cells (three-day cell viability chemiluminescence); format: cell-based; settings: Homo sapiens, MV4-11, 72 h, MV-4-11 human monocytic leukemia cells, three days of exposure
# Method: This study utilized a cell proliferation assay to analyze the cytotoxicity of MV-4-11 human monocytic leukemia cells after three days of exposure to NMT1 inhibitors. The MV-4-11 cell line was purchased from Nanjing Cobuilder Biotechnology Co., Ltd., and cultured in IMDM medium (Viva cell) in an incubator (Thermo) at 37 °C with 5% CO2. In this experiment, NMT1 inhibitors were dissolved in DMSO to obtain 600 µM stock solutions. Dose-response solutions were prepared with a top endpoint compound concentration of 3 µM, followed by three-fold serial dilutions in DMSO, totaling eight data points. The final concentration of DMSO was 0.5%.
# MV-4-11 cells were seeded into a white 96-well plate, 80 µL of cell suspension per well, containing 6000 MV-4-11 cells. The cell plate was placed in the CO2 incubator for overnight culture. Then, 20 µL of NMT1 inhibitor solutions at different concentrations were added to the wells. The 96-well plate was placed back into the incubator for three days. Another cell plate was prepared, and the signal was read on the day of drug addition to serve as the maximum value (Max value in the equation below) for data analysis. To this cell plate, 25 µL of cell viability chemiluminescence detection reagent was added per well, followed by incubation at room temperature for 10 minutes to stabilize the luminescence signal. A multi-label analyzer was used for reading.
# The raw data were converted into inhibition rates using the equation (Sample - Min) / (Max - Min) * 100%. The IC50 values were then determined by fitting a four-parameter curve (using the "log(inhibitor) vs. response - Variable slope" model in GraphPad Prism). Min: wells treated with 0.5% DMSO; Max: Day 0 wells. Table 1 provides the inhibitory activity of the compounds of the invention on MV-4-11 cell proliferation. Table 1: Compound Inhibitory Activity against NMT1 Enzyme (IC50) and Anti-proliferative Activity against MV-4-11 Cells (IC50)
# [2] = target: T1, NMT1 enzyme (Homo sapiens, UniProt P30419); assay: Inhibitory activity on NMT1 enzyme catalysis (fluorescence intensity, CPM probe); format: biochemical; settings: 6 nM NMT1 enzyme, 1.25 µM myristoyl-CoA, 20 µM HSPP60 SRC peptide, 45 minutes at 25 °C
# T1 sequence (P30419 1-496): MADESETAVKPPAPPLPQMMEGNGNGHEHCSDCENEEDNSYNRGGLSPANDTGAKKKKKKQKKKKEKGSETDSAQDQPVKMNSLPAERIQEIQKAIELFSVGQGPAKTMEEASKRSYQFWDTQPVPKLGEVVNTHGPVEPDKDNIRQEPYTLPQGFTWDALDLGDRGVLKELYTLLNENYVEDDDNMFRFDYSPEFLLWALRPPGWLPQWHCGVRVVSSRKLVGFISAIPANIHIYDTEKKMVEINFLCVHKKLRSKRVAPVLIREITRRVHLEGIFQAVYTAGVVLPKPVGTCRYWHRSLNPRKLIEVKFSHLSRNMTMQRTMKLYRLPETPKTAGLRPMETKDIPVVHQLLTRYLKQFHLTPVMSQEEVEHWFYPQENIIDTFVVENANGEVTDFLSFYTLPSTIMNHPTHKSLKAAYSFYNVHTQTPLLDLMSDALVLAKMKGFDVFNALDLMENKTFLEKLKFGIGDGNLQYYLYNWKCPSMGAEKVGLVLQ
# Method: This study evaluated the ability of the compounds of the invention to inhibit NMT1 catalytic activity in vitro. The experiment used a FI (Fluorescence Intensity) analysis method, characterizing NMT1 inhibitors under conditions of 1.25 µM myristoyl-CoA (Lithium salt, Sigma, M4414). In this experiment, a synthesized peptide with the sequence H-Gly-Ser-Asn-Lys-Ser-Lys-Pro-Lys-NH2, HSPP60SRC (Nanjing Peptide Industry, NJP23953), was used as the reaction substrate. The final concentration of the NMT1 enzyme was 6 nM, the final concentration of CPM (Reactive thiol fluorescence probe, Invitrogen, D346) was 1 µM, the final concentration of HSPP60 SRC was 20 µM, and the final concentration of DMSO was 0.5%.
# Compounds were dissolved in DMSO to obtain 10 mM stock solutions. Dose-response solutions were prepared with a top endpoint compound concentration of 3 mM, followed by three-fold serial dilutions in DMSO, totaling ten data points. Using an ECHO acoustic liquid handler (BECKMAN, ECHO 655 system), 0.05 µL of the diluted compound solutions was transferred to a 384-well assay plate (Corning, CLS4514). Then, 2.5 µL of the NMT1 enzyme working solution was added to the 384-well assay plate, followed by incubation at 25 °C for 10 minutes. Subsequently, 5 µL of the CPM and myristoyl-CoA working solution was added, the plate was centrifuged at 1000 rpm for 1 minute, and then 2.5 µL of the HSPP60 SRC working solution was added to initiate the reaction. The reaction was incubated at 25 °C for 45 minutes. The FI signal ([…]; ex: 405 nm) was detected using an HTS high-throughput screening multifunctional microplate reader (BMG, PHERA star FSX).
# The inhibition rate of the compounds on NMT1 enzyme catalytic activity was calculated using the following formula: Inhibition Percentage (%) = 100 * (Mean of DMSO group - Mean of Compound group) / (Mean of DMSO group - Mean of Blank control group). The IC50 curve of the compounds was fitted using the software XLfit 5.5.0 according to the nonlinear regression equation. Table 1 provides the inhibitory activity of the compounds of the invention on NMT1 enzyme catalysis.
SMILES,pIC50 [1],pIC50 [2]
"Cc1c(CCOc2cc(Cl)ccc2-c2ccn3ncc(CN(C)C)c3c2)c(C(=O)N(C)C)nn1C [Compound 1, 4-{2-[(5-chloro-2-{3-[(dimethylamino)methyl]-pyrazolo [1,5-a]pyridin-5-yl}phenyl)oxy]ethyl}-1,5,N,N-tetramethylpyrazole-3-carboxamide]",7.77,8.75
"CNCc1cnn2ccc(-c3ccc(Cl)cc3OCCc3c(C(=O)N(C)C)nn(C)c3C)cc12 [Compound 2, 4-{2-[(5-chloro-2-{3-[(methylamino)methyl]pyrazolo[1,5-a]pyridin-5-yl}phenyl)oxy]ethyl}-1,5,N,N-tetramethyl pyrazole-3-carboxamide]",7.63,8.67
"Cc1c(CCOc2cc(Cl)ccc2-c2ccn3ncc(CN)c3c2)c(C(=O)N(C)C)nn1C [Compound 3, 4-[2-({2-[3-(aminomethyl)pyrazolo[1,5-a]pyridin-5-yl]-5-chlorophenyl}oxy)ethyl]-1,5,N,N-tetramethylpyrazole-3-carboxamide]",7.39,8.46
"Cc1c(CCOc2cc(F)ccc2-c2ccn3ncc(CN(C)C)c3c2)c(C(=O)N(C)C)nn1C [Compound 4, 4-{2-[(2-{3-[(dimethylamino)methyl]pyrazolo[1,5-a]pyridin-5-yl}-5-fluorophenyl)oxy]ethyl} -1 ,5,N,N-tetrameth ylpyrazole-3-carboxamide]",7.94,8.78
"Cc1c(CCOc2c(F)cccc2-c2ccn3ncc(CN(C)C)c3c2)c(C(=O)N(C)C)nn1C [Compound 5, 4-{2-[(6-{3-[(dimethylamino)methyl]pyrazolo[1,5-a]pyridin-5-yl}-2-fluorophenyl)oxy]ethyl} -1 ,5,N,N-tetrameth ylpyrazole-3-carboxamide]",7.93,8.76
"CNCc1cnn2ccc(-c3ccc(F)c(F)c3OCCc3c(C(C)(C)O)nn(C)c3C)cc12 [Compound 29, 2-(4-{2-[(2,3-difluoro-6-{3-[(methylamino)methyl]-pyrazolo[1,5-a]pyridin-5-yl}phenyl)oxy]ethyl}-1,5-dimethylpyrazol-3-yl)propan-2-ol]",–,8.77
"CNCc1cnn2ccc(-c3ccc(F)c(F)c3OCCc3c(C(O)C(C)(C)C)nn(C)c3C)cc12 (stereo not shown) [Compound 30, 1-(4-{2-[(2,3-difluoro-6-{3-[(methylamino)methyl]-pyrazolo[1,5-a]pyridin-5-yl}phenyl)oxy]ethyl}-1,5-dimethylpyrazol-3-yl)-2,2-dimethylpr opan-1-ol]",–,8.79
"CNCc1cnn2ccc(-c3ccc(F)c(F)c3OCCc3c(C(C)O)nn(C)c3C)cc12 (stereo not shown) [Compound 31, 1-(4-{2-[(2,3-difluoro-6-{3-[(methylamino)methyl]-pyrazolo[1,5-a]pyridin-5-yl}phenyl)oxy]ethyl}-1,5-dimethylpyrazol-3-yl)ethan-1-ol]",–,8.74
"CNCc1cnn2ccc(-c3ccc(F)c(F)c3OCCc3c(C(O)C(C)C)nn(C)c3C)cc12 (stereo not shown) [Compound 32, 1-(4-{2-[(2,3-difluoro-6-{3-[(methylamino)methyl]pyrazolo[1,5-a]pyridin-5-yl}phenyl)oxy]ethyl}-1,5-dimethylpyrazol-3-yl)-2-methylpropan-1-ol]",–,8.77
"CNCc1cnn2ccc(-c3ccc(F)cc3OCCc3c(C(O)C(C)(C)C)nn(C)c3C)cc12 (stereo not shown) [Compound 34, 1-(4-{2-[(5-fluoro-2-{3-[(methylamino)methyl]pyrazolo[1,5-a]pyridin-5-yl}phenyl)oxy]ethyl}-1,5-dimethylpyrazol-3-yl)-2,2-dimethylpropan-1-ol]",–,8.71
"CNCc1cnn2ccc(-c3ccc(F)cc3OCCc3c(C(O)C(C)C)nn(C)c3C)cc12 (stereo not shown) [Compound 36, 1-(4-{2-[(5-fluoro-2-{3-[(methylamino)methyl]pyrazolo[1,5-a]pyridin-5-yl}phenyl)oxy]ethyl}-1,5-dimethylpyrazol-3-yl)-2-methylpropan-1-ol]",–,8.71
